From patent US11517572B2, “Killing senescent cells and treating senescence-associated conditions using a SRC inhibitor and a flavonoid” (Mayo Foundation for Medical Education and Research, priority 2014, dated 2022)

Assays:
Senescent cells = test: SA-β-Gal senescent cells in adipose tissue of high fat fed p16-3MR mice; type: in vivo; conditions: high fat diet four months, 25 mg/kg daily for five consecutive days, p=<0.004
Procedure: Groups of p16-3MR mice (n=6) were fed a high fat diet (60% fat) for four months mice or a regular chow diet. The presence of senescence cells was determined by measuring luminescence (i.e., p16 positive cells). […] Animals were then treated with ganciclovir or vehicle to determine if removal of senescent cells reduced the presence of senescent cells in adipose tissue. Groups of animals were treated with ganciclovir (GCV) or vehicle. Ganciclovir (25 mg/kg) was administered daily for five consecutive days. The presence of senescent cells in perirenal, epididymal, or subcutaneous inguinal adipose tissue was detected by SA-β-Gal staining Data were analyzed by ANOVA.

[1] = Glucose tolerance test and hemoglobin A1c in high fat fed p16-3MR mice; type: in vivo; conditions: high fat diet, 3 rounds of 25 mg/kg daily for five days
Procedure: Groups of p16-3MR mice (n=9) were fed a high fat diet for four months mice or a regular chow diet. Animals were then treated with ganciclovir (3 rounds of 25 mg/kg ganciclovir administered daily for five consecutive days) or vehicle. A glucose bolus was given at time zero, and blood glucose was monitored at 20, 30, 60, and 120 minutes after delivering glucose to determine glucose disposal (see FIG. 18A). This was also quantified as “area under the curve” (AUC) (see FIGS. 18B and 18C), with a higher AUC value indicating glucose intolerance.

[2] = Weight, body composition and food intake monitoring; type: in vivo; conditions: p16-3MR mice, high fat diet
Text: Changes in weight, body composition, and food intake were also monitored.

[3] = Glucose tolerance testing in DIO INK-ATTAC,p16-3MR mice; type: in vivo; conditions: compared to vehicle-treated DIO mice
Procedure: Three-month old INK-ATTAC,p16-3MR mice were fed a high fat diet for 4 months. The animals were then treated with ganciclovir or vehicle. DIO mice were treated with ganciclovir on September 1 (see FIG. 21).

[4] = Insulin Tolerance Testing (ITT); type: in vivo, mice
Procedure: Insulin sensitivity was also determined (Insulin Tolerance Testing (ITT)).

IMR90 cells = test: Killing of radiation-induced senescent vs proliferating IMR90 fibroblasts; type: cell-based, human; conditions: enzastaurin at 0.25 0.5 and 2 μM
Text: Senescence of human primary lung fibroblasts (IMR90) (IMR-90 (ATCC® CCL-186TH, Mannassas, Va.) was induced by irradiation. IMR90 cells in culture were subjected to 10 Gy radiation (Day-7). Four days after irradiation (Day-3), the culture media was changed. Three days after the media change (Day 0), the cells were exposed to media containing quercetin. Non-irradiated IMR90 cells were included as controls. Non-irradiated and irradiated IMR90 cells were exposed to quercetin at concentrations of 5, 10, 15, and 45 μM. Percent survival was determined four days after exposure to the drugs (Day 4). The number of viable cells was determined by using ATPLITE (Perkin-Elmer, Waltham, Mass.).
In a separate experiment, IMR90 cells were irradiated as described above to induce senescence. Approximately 20 days after irradiation, the senescent cells and proliferating IMR90 cells were exposed to enzastaurin at concentrations of 0.25 0.5 and 2 μM.

HUVEC cells = test: Viability (ATPLITE) of senescent and proliferating HUVEC endothelial cells; type: cell-based, human; conditions: enzastaurin in combination with dasatinib, FIG. 4E, 48 hours
Procedure: Human umbilical endothelial cells (HUVEC) (Lonza Group, Basel, Switzerland) were induced to senescence by exposure to 10 Gy radiation. Twenty days after irradiation, markers of cellular senescence (SA-β Gal) and growth arrest, determined by incorporation of BR dU, were evident. Non-senescent HUVEC cells used as control were plated at low density in culture media so that the cells were proliferating when exposed to the test drug. Senescent HUVEC cells and non-senescent, proliferating HUVEC cells were treated for 48 hours with quercetin, dasatinib, and enzastaurin as follows: (1) quercetin alone at 3.75, 7.5 and 15μ,M; (2) dasatinib alone at 25, 50, 100, and 200 nM; (3) enzastaurin alone at concentrations of 0.25 0.5 1 and 2 μM; (4) dasatinib at 100 nM plus quercetin at 7.5 μM; (5) with dasatinib at 50 nM plus quercetin at 7.5 μM; (6) dasatinib at 100 nM plus enzastaurin at 1.0 μM; (7) dasatinib at 100 nM plus enzastaurin at 0.5 μM; (8) dasatinib at 50 nM plus enzastaurin at 1.0 μM; (9) dasatinib at 50 nM plus enzastaurin at 0.5 μM; (10) quercetin at 15 μM and enzastaurin at 1.0 μM; (11) quercetin at 15 μM and enzastaurin at 1.0 μM; and (12) quercetin at 7.5 μM and enzastaurin at 1.0 μM. The number of viable cells was determined by ATPLITE (Perkin-Elmer, Waltham, Mass.). The data are presented in FIGS. 4A-4F as mean viability (ATP (μM))+SEM of 4.

Row | body composition (percent of fat) [2] | food intake (grams per week) [2] | Structure (SMILES) | presence of senescent cells in epididymal fat (SA-β-Gal) (Senescent cells) | Hemoglobin A1c [1] | glucose tolerance test AUC ([1]; vs vehicle-treated) | body weight [2] | glucose tolerance (areas under the curve in glucose tolerance tests) [3] | decrease in blood glucose in insulin tolerance testing ([4]; p16-3MR mice fed a high fat diet, 0, 14, 30, 60, and 120 minutes) | change in insulin tolerance testing ([4]; wild-type mice) | killing of proliferating IMR90 cells (IMR90 cells) | selective killing of senescent IMR90 cells (IMR90 cells; approximately 20 days after 10 Gy irradiation) | potentiating effect of dasatinib (HUVEC cells)
1 | did not alter | did not alter | Nc1nc(O)c2ncn(COC(CO)CO)c2n1 [ganciclovir] | significant reduction | lower | significantly lower | did not alter | sustained and improved glucose tolerance | greater decrease in blood glucose | not observed |  |  | 
2 |  |  | Cn1cc(C2=C(c3cn(C4CCN(Cc5ccccn5)CC4)c4ccccc34)C(=O)NC2=O)c2ccccc21 [Enzastaurin, 3-(1-Methylindol-3-yl)-4-[1-[1-(pyridin-2-ylmethyl)piperidin-4-yl]indol-3-yl]pyrrole-2,5-dione] |  |  |  |  |  |  |  | did not kill the proliferating cells | did not selectively kill the senescent cells | slight potentiating effect
